This passage reports IC50 results from PMC4937660, “In vitro evaluation of the effects of 4-aminopyridine on cytochrome P450 enzymes” (Journal of Drug Assessment, 2013).

In the test the test system is T1, CYP3A4/5.
T1 construct: native enzymes in pooled human liver microsomes (16 samples, XenoTech); read out by testosterone 6beta-hydroxylation and midazolam 1'-hydroxylation
Nature of the test: testosterone 6beta-hydroxylation in human liver microsomes, HPLC-MS/MS. As to conditions: direct inhibition, no pre-incubation; testosterone 100 μM (about Km); NADPH-generating system, pH 7.4, 37 °C; read-out: Direct inhibition; 0-min Pre-incubation / IC50. Type of test: biochemical. From the text: testosterone 6beta-hydroxylation in human liver microsomes, HPLC-MS/MS on CYP3A4/5
In general terms: Liver microsomes are a subcellular fraction often used to study metabolism.

As to `Nc1ccncc1` [4-AP], the IC50 is more than 30 µM.
